Patent US20100022559A1, “BISOXIMES AS FUNGICIDES” (BAYER CROPSCIENCE AG, priority 2006, published 2010)
One block for each compound: values may come before it.

Test: logP determination by HPLC on a reversed-phase column (C 18), EEC Directive 79/831 Annex V.A8
Assay type: physicochemical
Protocol: The stated logP values were determined in accordance with EEC Directive 79/831 Annex V.A8 by HPLC (high performance liquid chromatography) on a reversed-phase column (C 18). Temperature: 43° C.

[1] = method marker [b], isomer A / isomer B / isomer mixture as noted in the cell
[2] = method marker [a] (footnote not shown), isomer A / isomer B / isomer mixture as noted in the cell

logP (value marked [b]): 5.84^[b]
SMILES: CC(=NOCC(C)(C)CON=C(C)c1ccc(Cl)s1)c1cccc(C)n1 [Compound 486]

logP (value marked [b]): 3.24^[b]
SMILES: C=C(CON=C(C)c1cccc(C)n1)CON=C(C)c1ccnc(C)n1 [compound 360]

logP (method marked [b] in Table 1): 3.65^[b]
SMILES: CC(=NOCC1(CON=C(C)c2ccc(C)c(C)n2)CC(C(C)(C)C)=NO1)c1ccc(C)c(C)n1 (centres unmarked) [compound 631]

logP [1]: 3.34^[b]
SMILES: C=C(CON=C(C)c1cccc(C)n1)CON=C(C)c1cccnc1Cl [compound 147]

logP (value marked [b]): 5.33^[b]
logP (value marked [c]): 5.44^[c]
SMILES: C#CCOc1ccc(C(C)=NOCC(C)CON=C(C)c2ccc(OCC#C)c(C)n2)nc1C (centres unmarked) [Compound 867]

logP (method marked [b] in Table 1): 2.07^[b]
SMILES: CC1=NOC(CON=C(C)c2ccc(C)c(C)n2)(CON=C(C)c2ccc(C)c(C)n2)C1 (centres unmarked) [compound 626]

logP (value marked [b]): 3.85^[b]
SMILES: C/C(=N\OCC(C)CO/N=C(\C)c1cncc(C)n1)c1cccc(C)n1 (centres unmarked) [compound 505]

logP [1]: 5.15^[b]
SMILES: C=C(CON=C(C)c1cccc(C(C)=O)n1)CON=C(C)c1cccc(C(C)=O)n1 [compound 120]

logP (value marked [b]): 3.4^[b]
logP (value marked [c]): 6.79^[c]
SMILES: CC(=NOC(C)CC(C)ON=C(C)c1ccc(C)c(C)n1)c1ccc(C)c(C)n1 (centres unmarked) [Compound 322]

logP [1]: 1.92^[b] (isomer A)
SMILES: C=C(CON=C(C)c1ccc(C)nc1)CON=C(C)c1cccc(C)n1 (single isomer, unassigned) [compound 200]

logP (value marked [b]): 1.99^[b]
logP (value marked [c]): 2.97^[c]
SMILES: CC(=NOCC1(CON=C(C)c2cccc(C)n2)COC(=O)N1)c1cccc(C)n1 (centres unmarked) [compound 856]

logP (value marked [a]): 1.34^[a]
logP (value marked [c]): 4.94^[c]
SMILES: COc1cc(C)nc(C(C)=NOCC2(CON=C(C)c3cc(OC)cc(C)n3)CC2)c1 [Compound 816]

logP [1]: 3.44^[b]
SMILES: CC(=NOCC1(CON=C(C)c2cccc(C)n2)CC1)c1cccc(C)n1 [Compound 15]

logP (method marked [b] in Table 1): 6.24^[b]
logP (method marked [c] in Table 1): 3.26^[c]
SMILES: CC(=NOCC(C)CON=C(C)c1cccc(-c2cccc(C)n2)n1)c1cccc(-c2cccc(C)n2)n1 (centres unmarked) [compound 551]

logP (method marked [b] in Table 1): 2.63^[b]
logP (method marked [c] in Table 1): 6.17^[c]
SMILES: CC(=NOCC(C)CON=C(C)c1ccc(C)c(C)n1)c1cc(C)cc(C)n1 (racemic) [Compound 694]

logP (method marked [a] in Table 1): 2.67^[a]
SMILES: CC(=NOC/C=C/CON=C(C)c1ccc(C)c(C)n1)c1ccc(C)c(C)n1 [compound 684]

Continued, compound first:

SMILES: C=C(CON=Cc1cccc(C)n1)CON=Cc1cccc(C)n1 (single isomer, unassigned) [compound 662]
logP (method marked [b] in Table 1): 2.16^[b] (isomer B)

SMILES: C=C(CON=C(C)c1ccccn1)CON=C(C)c1ccccn1 [compound 60]
logP [1]: 3.00^[b]

SMILES: CC(=NOC/C=C\CON=C(C)c1ccccn1)c1ccccn1 [Compound 541]
logP (method marked [b] in Table 1): 3.04^[b]

SMILES: C=C(CON=C(CC)c1cccc(C)n1)CON=C(CC)c1cccc(C)n1 [Compound 239]
logP [2]: 5.16^[a]

SMILES: CC(=NOCC(C)CON=C(C)c1nc2ccccc2s1)c1nc2ccccc2s1 (centres unmarked) [Compound 213]
logP [1]: 6.71^[b]

SMILES: CC(=NOCCCON=C(C)c1ncccc1C)c1ncccc1C (single isomer, unassigned) [compound 84]
logP [2]: 2.51^[a] (isomer B)

SMILES: CC(=NOCC1(CON=C(C)c2cc(C)cc(C)n2)CC(c2cccc(Cl)c2)=NO1)c1cc(C)cc(C)n1 (centres unmarked) [compound 646]
logP (method marked [b] in Table 1): 3.28^[b]

SMILES: CCCC(=NOCC1(CON=C(CCC)c2cccc(C)n2)CC(C)=NO1)c1cccc(C)n1 (centres unmarked) [compound 615]
logP (method marked [b] in Table 1): 4.56^[b]

SMILES: C=C(CON=C(Cl)c1cc(C)cc(C)n1)CON=C(Cl)c1cc(C)cc(C)n1 [compound 795]
logP (value marked [a]): 4.62^[a]

SMILES: C=C(CON=C(C)c1cccc(C)n1)CON=C(C)c1ncc(Cl)cc1Cl [compound 194]
logP [1]: 4.72^b]

SMILES: C=C(CON=C(C)c1ccc[nH]1)CON=C(C)c1ccc[nH]1 [compound 564]
logP (method marked [b] in Table 1): 3.23^[b]
logP (method marked [c] in Table 1): 3.20^[c]

SMILES: C/C(=N\OCC(C)(C)CCl)c1cccc(C)n1 [VI-1, (1E)-1-(6-methylpyridin-2-yl)ethanone O-(3-chloro-2,2-dimethylpropyl)oxime]
chromatographic logP (reversed-phase HPLC column (C 18), HCO2H, HPLC reversed-phase column (C 18), 43° C., read-out: logP (HCO2H)): 3.76
